Target: Mitogen-activated protein kinase kinase kinase kinase 1 (Homo sapiens, UniProt Q92918)
Assay: Detection of Compound's Ability to Inhibit HPK1 Kinase Activity Assay
Experimental: The specific operation is as follows: configure the enzymatic reaction system buffer (10 mM MOPS, pH 7.2, 5 mM β-glycerol-phosphate, 10 mM MgCl2, 0.8 mM EDTA, 2 mM EGTA, 0.1 mM DTT); the test compound (1 mM the compound stock solution in DMSO) was diluted with buffer to the highest concentration of 60 uM (containing 6% DMSO), and the compound with a concentration of 60 μM was initially diluted 5 times with a buffer containing 6% DMSO for a total of 8 points of gradient concentration; then dilute HPK1 kinase to 30 nM in buffer. Add 2 μl of HPK1 kinase diluent to each well of a Greiner 384-well microplate (Cat. No. 784075), and add 2 μl of buffer to the control well; add 1 μl of the diluted compound to the reaction well after brief centrifugation, and add 1 μl buffer solution containing 6% DMSO to the control well; after short centrifugation, place in a 25° C. constant temperature incubator (Shanghai Yiheng Scientific Instrument Co., Ltd., Cat. No.: LRH-150) and incubate for 20 minutes. Add 3 μl of reaction substrate (10 μM MBP and 20 μM ATP dissolved in distilled water) to each well, briefly centrifuge and incubate in a constant temperature incubator at 25° C. for 60 min, and use ADP-Glo Kinase Assay Kit to detect the enzymatic reaction activity, ADP-Glo Kinase Assay Kit detection is carried out according to the operating instructions of the kit. Data are described using the half maximal inhibitory

Chain of Mitogen-activated protein kinase kinase kinase kinase 1 (Q92918 whole entry): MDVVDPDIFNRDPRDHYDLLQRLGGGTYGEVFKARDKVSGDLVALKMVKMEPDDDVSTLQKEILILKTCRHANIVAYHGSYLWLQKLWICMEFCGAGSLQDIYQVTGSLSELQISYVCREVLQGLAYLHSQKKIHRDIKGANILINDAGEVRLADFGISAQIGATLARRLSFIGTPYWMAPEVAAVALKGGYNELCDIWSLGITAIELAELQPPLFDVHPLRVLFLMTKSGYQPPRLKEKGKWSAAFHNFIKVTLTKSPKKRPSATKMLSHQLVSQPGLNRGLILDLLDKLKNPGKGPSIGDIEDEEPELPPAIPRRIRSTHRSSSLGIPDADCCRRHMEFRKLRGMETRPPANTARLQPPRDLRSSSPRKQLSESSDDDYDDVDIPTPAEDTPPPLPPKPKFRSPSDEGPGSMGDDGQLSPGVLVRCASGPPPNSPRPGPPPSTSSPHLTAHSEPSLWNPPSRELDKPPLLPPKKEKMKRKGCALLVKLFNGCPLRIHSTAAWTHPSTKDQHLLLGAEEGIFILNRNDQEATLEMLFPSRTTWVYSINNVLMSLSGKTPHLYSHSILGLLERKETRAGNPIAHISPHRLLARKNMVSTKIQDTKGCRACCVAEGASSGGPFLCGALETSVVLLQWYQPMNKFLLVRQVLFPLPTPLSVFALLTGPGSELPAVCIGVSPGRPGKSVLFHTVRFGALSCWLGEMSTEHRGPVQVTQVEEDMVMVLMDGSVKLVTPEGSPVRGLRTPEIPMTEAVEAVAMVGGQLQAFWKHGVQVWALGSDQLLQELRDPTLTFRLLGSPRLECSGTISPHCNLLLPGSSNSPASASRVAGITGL

`CN1CCc2[nH]c(=O)c(Nc3ncc4ccnc(N5CCCCCC5)c4n3)cc2C1` [US20230399327, Example 73] gave an IC50 of 0.41 nM.
`COc1nc2c(cc1Nc1ncc3ccnc(NC(C)(C)CO)c3n1)CN(C)CC2` [US20230399327, Example 109] gave an IC50 of under 0.1 nM.
`COc1nc2c(cc1Nc1ncc3cccc(-c4ccccc4)c3n1)CN(C)CC2` [US20230399327, Example 1] gave an IC50 of under 0.1 nM.
Work on `COc1nc2c(cc1Nc1ncc3ccnc(N4CCC[C@H]4CO)c3n1)CN(C)CC2` [US20230399327, Example 101] yielded an IC50 of under 0.1 nM.
Work on `CN1CCc2c(cc(Nc3ncc4ccnc(N5CCC(F)(F)CC5)c4n3)c(=O)n2C)C1` [US20230399327, Example 79] yielded an IC50 of under 0.1 nM.
`COc1cc2c(cc1Nc1ncc3ccnc(N[C@@H](CO)C(C)C)c3n1)CN(C)CC2` [US20230399327, Example 112] was tested, and the IC50 was under 0.1 nM.
Work on `CCOc1nc2c(cc1Nc1ncc3ccnc(N4CCC[C@H]4CO)c3n1)CN(C)CC2` [US20230399327, Example 106] yielded an IC50 of 15.4 nM.
In the case of `CN1CCc2[nH]c(=O)c(Nc3ncc4ccnc(NCC(C)(C)CO)c4n3)cc2C1` [US20230399327, Example 70], the IC50 is reported as 0.29 nM.
`COc1nc2c(cc1Nc1ncc3ccnc(NCC(C)(C)O)c3n1)CN(C)CC2` [US20230399327, Example 111] was tested, and the IC50 was under 0.1 nM.
`COc1nc2c(cc1Nc1ncc3ccnc(N4CC(F)(F)C[C@H]4CO)c3n1)CN(C)CC2` [US20230399327, Example 108] was tested, and the IC50 was under 0.1 nM.
With `CN1CCc2c(cc(Nc3ncc4ccnc(N5CCC(F)(F)C5)c4n3)c(=O)n2C)C1` [US20230399327, Example 85] the IC50 was 25.3 nM.
`CC[C@H](CO)Nc1nccc2cnc(Nc3cc4c(nc3OC)CCN(C)C4)nc12` [US20230399327, Example 110] was tested, and the IC50 was under 0.1 nM.
`COc1nc2c(cc1Nc1ncc3ccnc(N[C@H](CO)C(C)C)c3n1)CN(C)CC2` [US20230399327, Example 91] showed an IC50 of 21.5 nM.
Work on `C[C@@H]1CCCCN1c1nccc2cnc(Nc3cc4c([nH]c3=O)CCN(C)C4)nc12` [US20230399327, Example 76] yielded an IC50 of under 0.1 nM.
`COc1nc2c(cc1Nc1ncc3cccc(-c4cnn5ccccc45)c3n1)CN(C)CC2` [US20230399327, Example 2] gave an IC50 of under 0.1 nM.
In the case of `CN1CCc2[nH]c(=O)c(Nc3ncc4ccnc(N5CCSCC5)c4n3)cc2C1` [US20230399327, Example 72], the IC50 is reported as 21.2 nM.
Molecule `CCOc1nc2c(cc1Nc1ncc3ccnc(N[C@H](CO)C(C)C)c3n1)CN(C)CC2` [US20230399327, Example 89] has an IC50 of under 0.1 nM.
`COc1nc2c(cc1Nc1ncc3ccnc(C4=CCOCC4)c3n1)CN(C)CC2` [US20230399327, Example 26] gave an IC50 of 8.31 nM.
In the case of `CCOc1nc2c(cc1Nc1ncc3ccnc(N[C@H]4CC[C@@H](O)C4)c3n1)CN(C)CC2` [US20230399327, Example 98], the IC50 is reported as 0.44 nM.
With `CN1CCc2[nH]c(=O)c(Nc3ncc4ccnc(NCC5(C)CC5)c4n3)cc2C1` [US20230399327, Example 77] the IC50 was under 0.1 nM.
`CCOc1nc2c(cc1Nc1ncc3ccnc(N[C@@H]4CCC[C@H]4O)c3n1)CN(C)CC2` [US20230399327, Example 95] gave an IC50 of 18.1 nM.

From BindingDB's records for patent US20230399327 (Adlai Nortye Biopharma Co., 2023)
